In the NIST ThermoML archive (doi:10.1021/je600573w):
± gives the expanded uncertainty stated by the source.

Experiments:
[1] = molar heat capacity at constant pressure; conditions: 101.33 kPa, Liquid, Small sample (50 mg) DSC
[2] = 101.33 kPa, Liquid, Vibrating tube method

Brc1ccccc1Br [1,2-dibromobenzene]
Conditions | mass density [kg/m3] | molar heat capacity at constant pressure [J/K/mol]
[1], 283.15 K | – | 177.44 ± 2.8
[1], 285.15 K | – | 177.83 ± 2.8
[1], 287.15 K | – | 178.12 ± 2.8
[1], 289.15 K | – | 178.43 ± 2.8
[1], 291.15 K | – | 178.75 ± 2.8
[1], 293.15 K | – | 179.08 ± 2.8
[1], 295.15 K | – | 179.42 ± 2.8
[1], 297.15 K | – | 179.76 ± 2.8
[1], 299.15 K | – | 180.12 ± 2.8
[1], 301.15 K | – | 180.48 ± 2.8
[1], 303.15 K | – | 180.85 ± 2.8
[1], 305.15 K | – | 181.22 ± 2.8
[1], 307.15 K | – | 181.6 ± 2.8
[1], 309.15 K | – | 181.99 ± 2.8
[1], 311.15 K | – | 182.38 ± 2.8
[1], 313.15 K | – | 182.77 ± 2.8
[1], 315.15 K | – | 183.17 ± 2.8
[1], 317.15 K | – | 183.57 ± 2.8
[1], 319.15 K | – | 183.97 ± 2.9
[1], 321.15 K | – | 184.38 ± 2.9
[1], 323.15 K | – | 184.79 ± 2.9
[1], 325.15 K | – | 185.19 ± 2.9
[1], 327.15 K | – | 185.6 ± 2.9
[1], 329.15 K | – | 186.01 ± 2.9
[1], 331.15 K | – | 186.42 ± 2.9
[1], 333.15 K | – | 186.82 ± 2.9
[1], 335.15 K | – | 187.23 ± 2.9
[1], 337.15 K | – | 187.63 ± 2.9
[1], 339.15 K | – | 188.03 ± 2.9
[1], 341.15 K | – | 188.42 ± 2.9
[1], 343.15 K | – | 188.82 ± 2.9
[1], 345.15 K | – | 189.2 ± 2.9
[1], 347.15 K | – | 189.58 ± 2.9
[1], 349.15 K | – | 189.96 ± 2.9
[1], 351.15 K | – | 190.33 ± 3
[1], 353.15 K | – | 190.69 ± 3
[2], 288.15 K | 1987.92 ± 1.6 | –
[2], 298.15 K | 1972.75 ± 1.5 | –
[2], 308.15 K | 1957.62 ± 1.5 | –
[2], 318.15 K | 1942.51 ± 1.5 | –
[2], 328.15 K | 1927.42 ± 1.5 | –
[2], 338.15 K | 1912.34 ± 1.4 | –

Clc1ccc(Cl)c(Cl)c1Cl [1,2,3,4-tetrachlorobenzene]
[1]
Conditions | molar heat capacity at constant pressure [J/K/mol]
327.15 K | 225.17 ± 3.5
329.15 K | 225.49 ± 3.5
331.15 K | 225.82 ± 3.5
333.15 K | 226.14 ± 3.5
335.15 K | 226.47 ± 3.5
337.15 K | 226.8 ± 3.5
339.15 K | 227.13 ± 3.5
341.15 K | 227.46 ± 3.5
343.15 K | 227.8 ± 3.5
345.15 K | 228.13 ± 3.5
347.15 K | 228.47 ± 3.5
349.15 K | 228.81 ± 3.5
351.15 K | 229.16 ± 3.5
353.15 K | 229.5 ± 3.6

Clc1ccc(Cl)c(Cl)c1 [1,2,4-trichlorobenzene]
Conditions | mass density [kg/m3] | molar heat capacity at constant pressure [J/K/mol]
[1], 293.15 K | – | 194.25 ± 3
[1], 295.15 K | – | 194.57 ± 3
[1], 297.15 K | – | 194.9 ± 3
[1], 299.15 K | – | 195.23 ± 3
[1], 301.15 K | – | 195.57 ± 3
[1], 303.15 K | – | 195.92 ± 3
[1], 305.15 K | – | 196.27 ± 3
[1], 307.15 K | – | 196.63 ± 3
[1], 309.15 K | – | 196.99 ± 3
[1], 311.15 K | – | 197.35 ± 3.1
[1], 313.15 K | – | 197.72 ± 3.1
[1], 315.15 K | – | 198.09 ± 3.1
[1], 317.15 K | – | 198.47 ± 3.1
[1], 319.15 K | – | 198.85 ± 3.1
[1], 321.15 K | – | 199.23 ± 3.1
[1], 323.15 K | – | 199.61 ± 3.1
[1], 325.15 K | – | 200 ± 3.1
[1], 327.15 K | – | 200.38 ± 3.1
[1], 329.15 K | – | 200.77 ± 3.1
[1], 331.15 K | – | 201.16 ± 3.1
[1], 333.15 K | – | 201.55 ± 3.1
[1], 335.15 K | – | 201.93 ± 3.1
[1], 337.15 K | – | 202.32 ± 3.1
[1], 339.15 K | – | 202.71 ± 3.1
[1], 341.15 K | – | 203.09 ± 3.1
[1], 343.15 K | – | 203.47 ± 3.1
[1], 345.15 K | – | 203.85 ± 3.2
[1], 347.15 K | – | 204.23 ± 3.2
[1], 349.15 K | – | 204.61 ± 3.2
[1], 351.15 K | – | 204.98 ± 3.2
[1], 353.15 K | – | 205.35 ± 3.2
[2], 288.15 K | 1460.65 ± 0.82 | –
[2], 298.15 K | 1448.67 ± 0.81 | –
[2], 308.15 K | 1436.73 ± 0.79 | –
[2], 318.15 K | 1424.8 ± 0.8 | –
[2], 328.15 K | 1412.89 ± 0.76 | –
[2], 338.15 K | 1400.98 ± 0.75 | –

Clc1cccc(Cl)c1Cl [1,2,3-trichlorobenzene]
[1]
Conditions | molar heat capacity at constant pressure [J/K/mol]
327.15 K | 201.44 ± 3.1
329.15 K | 201.8 ± 3.1
331.15 K | 202.16 ± 3.1
333.15 K | 202.52 ± 3.1
335.15 K | 202.88 ± 3.1
337.15 K | 203.25 ± 3.1
339.15 K | 203.62 ± 3.1
341.15 K | 204 ± 3.2
343.15 K | 204.38 ± 3.2
345.15 K | 204.75 ± 3.2
347.15 K | 205.14 ± 3.2
349.15 K | 205.52 ± 3.2
351.15 K | 205.91 ± 3.2
353.15 K | 206.3 ± 3.2

Clc1ccccc1Br [1-bromo-2-chlorobenzene]
Conditions | mass density [kg/m3] | molar heat capacity at constant pressure [J/K/mol]
[1], 283.15 K | – | 172.25 ± 2.7
[1], 285.15 K | – | 172.59 ± 2.7
[1], 287.15 K | – | 172.94 ± 2.7
[1], 289.15 K | – | 173.29 ± 2.7
[1], 291.15 K | – | 173.65 ± 2.7
[1], 293.15 K | – | 174.02 ± 2.7
[1], 295.15 K | – | 174.39 ± 2.7
[1], 297.15 K | – | 174.78 ± 2.7
[1], 299.15 K | – | 175.17 ± 2.7
[1], 301.15 K | – | 175.56 ± 2.7
[1], 303.15 K | – | 175.96 ± 2.7
[1], 305.15 K | – | 176.36 ± 2.7
[1], 307.15 K | – | 176.77 ± 2.7
[1], 309.15 K | – | 177.19 ± 2.8
[1], 311.15 K | – | 177.61 ± 2.8
[1], 313.15 K | – | 178.03 ± 2.8
[1], 315.15 K | – | 178.45 ± 2.8
[1], 317.15 K | – | 178.88 ± 2.8
[1], 319.15 K | – | 179.31 ± 2.8
[1], 321.15 K | – | 179.74 ± 2.8
[1], 323.15 K | – | 180.17 ± 2.8
[1], 325.15 K | – | 180.6 ± 2.8
[1], 327.15 K | – | 181.03 ± 2.8
[1], 329.15 K | – | 181.47 ± 2.8
[1], 331.15 K | – | 181.9 ± 2.8
[1], 333.15 K | – | 182.33 ± 2.8
[1], 335.15 K | – | 182.77 ± 2.8
[1], 337.15 K | – | 183.2 ± 2.8
[1], 339.15 K | – | 183.62 ± 2.8
[1], 341.15 K | – | 184.05 ± 2.9
[1], 343.15 K | – | 184.47 ± 2.9
[1], 345.15 K | – | 184.89 ± 2.9
[1], 347.15 K | – | 185.31 ± 2.9
[1], 349.15 K | – | 185.72 ± 2.9
[1], 351.15 K | – | 186.13 ± 2.9
[1], 353.15 K | – | 186.53 ± 2.9
[2], 288.15 K | 1659.67 ± 1.1 | –
[2], 298.15 K | 1646.32 ± 1.1 | –
[2], 308.15 K | 1633.01 ± 1.1 | –
[2], 318.15 K | 1619.69 ± 1 | –
[2], 328.15 K | 1606.36 ± 1 | –
[2], 338.15 K | 1593.03 ± 1 | –
